Experimental findings from article PMC11280325, “Design, Synthesis, and Characterization of Novel Thiazolidine-2,4-Dione-Acridine Hybrids as Antitumor Agents” (Molecules, 2024) are described below.

Where a name gives a salt, the structure may show the parent alone.

For one assay, the system named is HCT116. Description: MTT assay, HCT116. The class given is cell-based, human. The following applies: colorectal adenocarcinoma, 48 h incubation. The protocol: (§1) The human cancer cell lines HeLa (cervical adenocarcinoma), HCT116 (colorectal adenocarcinoma), A2780 (human ovarian adenocarcinoma), A2780cis (human ovarian adenocarcinoma cisplatin-resistant), Jurkat (acute T-lymphoblastic leukemia), and Hep G2 (hepatocellular carcinoma) were cultured in an RPMI 1640 growth medium (Biosera, Kansas City, MO, USA). The cancer cell lines MDA-MB-231 (triple-negative breast adenocarcinoma), A2058 (human melanoma), U87 (human glioblastoma), PATU 8902 (pancreas adenocarcinoma), and A549 (human lung adenocarcinoma) were cultured in a DMEM medium (Biosera, Kansas City, MO, USA). The media were supplemented with 10% fetal bovine serum (FBS) (Invitrogen, Carlsbad, CA, USA) and 1× HyClone™ Antibiotic/Antimycotic Solution (GE Healthcare, Piscataway, NJ, USA).
(§2) To evaluate the IC50 (half-maximal inhibitory concentration) and confirm the antiproliferative activity of the tested substances, we employed the colorimetric MTT assay (3-(4,5-dimethylthiazol-2-yl)-2,5-diphenyltetrazolium bromide) (Sigma-Aldrich Chemie, Steinheim, Germany). The cell lines were seeded in 96-well plates at a density of 5 × 10^3 to 10 × 10^3 cells per well. After 24 h, the tested substances, dissolved in the cultivation medium, were added to the cells at final concentrations of 5, 10, 20, and 50 µmol/L. The cells were then incubated for 48 h under standard cultivation conditions. Following the incubation period, MTT was added to each well. The MTT was metabolized by the cells into insoluble formazan crystals, which were subsequently dissolved by adding 100 µL of 10% SDS. After another 24 h, the absorbance was measured at a wavelength of 540 nm using the automated Cytation™ 3 Cell Imaging Multi-Mode Reader (Biotek, Winooski, VT, USA). The experiments were performed in at least three independent repetitions. IC50 values were calculated using a nonlinear regression method.
Background: Formazan colour is commonly taken as a measure of viable cells.

The next assay concerns MCF-10A. Nature of the assay: MTT assay, MCF-10A non-cancerous cells. The format is cell-based, human. The note with it: non-cancerous epithelial breast cells, 48 h incubation. As to the method:
(§3) The non-cancerous cell line MCF-10A (human epithelial breast cells) was cultured in a DMEM F12 medium supplemented with 10% FBS (Invitrogen, Carlsbad, CA, USA), 1× HyClone™ Antibiotic/Antimycotic Solution (GE Healthcare, Piscataway, NJ, USA), insulin, hEGF, and hydrocortisone. The BJ-5ta cells (human dermal fibroblasts) were cultured in a DMEM-M199 4:1 medium mixture, supplemented with 10% FBS and hygromycin B (0.01 mg/mL). The cells were maintained under standard conditions with an atmosphere containing 5% CO2 at 37 °C. Cell viability, estimated by trypan blue exclusion, was consistently greater than 95% before each experiment.
as §2

The next assay has as its system A2780. Description: MTT assay, A2780. The format is cell-based, human. The note with it: ovarian adenocarcinoma, 48 h incubation. The protocol:
as §1, §2

The next assay relates to HeLa. Nature of the assay: MTT assay, HeLa. The class given is cell-based, human. The following applies: cervical adenocarcinoma, 48 h incubation. The protocol:
as §1, §2

For the next assay, the system named is PATU. Nature of the assay: MTT assay, PATU 8902. The class given is cell-based, human. The following applies: pancreas adenocarcinoma, 48 h incubation. As to the method: as §1, §2
The test system of a further assay is Bj-5ta. Nature of the assay: MTT assay, BJ-5ta non-cancerous fibroblasts. The following applies: non-cancerous dermal fibroblasts, 48 h incubation. The class given is cell-based, human. The protocol:
as §3, §2

For another assay, the system named is Hep G2. Description: MTT assay, Hep G2. The class given is cell-based, human. The note with it: hepatocellular carcinoma, 48 h incubation. The protocol:
as §1, §2

In a further assay the test system is A549. Nature of the assay: MTT assay, A549. The format is cell-based, human. The note with it: lung adenocarcinoma, 48 h incubation. The protocol:
as §1, §2

The next assay deals with A2058. Description: MTT assay, A2058. The class given is cell-based. The note with it: human melanoma, 48 h incubation. As to the method:
as §1, §2

A word on the IC50: it is the midpoint of a concentration-inhibition curve. Read a low IC50 as greater potency in that assay. Turning to `COc1cc(NC(=O)COc2ccc(/C=C3\SC(=O)N(Cc4c5ccccc5nc5ccccc45)C3=O)cc2)cc(OC)c1OC` [7c·2HCl, 2-(4-{[(5Z)-3-[(Acridin-9-yl)methyl]-2,4-dioxo-1,3-thiazolidin-5-ylidene]methyl}phenoxy)-N-(3,4,5-trimethoxyphenyl)acetamide dihydrochloride], the IC50 with HCT116 is 16.9 ± 1.75 µM; in the assay on MCF-10A, more than 50 µM; in the assay with A2780, more than 50 µM; in the assay with HeLa it was 21.4 ± 5.8 µM; with PATU, more than 50 µM; in the assay with Bj-5ta, more than 50 µM. Also, the IC50 in the assay on Hep G2, with A549 and in the assay on A2058 was more than 50 µM throughout.

With `O=C(COc1ccc(/C=C2\SC(=O)N(Cc3c4ccccc4nc4ccccc34)C2=O)cc1)Nc1ccc([N+](=O)[O-])cc1` [7d·2HCl, 2-(4-{[(5Z)-3-[(Acridin-9-yl)methyl]-2,4-dioxo-1,3-thiazolidin-5-ylidene]methyl}phenoxy)-N-(4-nitrophenyl)acetamide dihydrochloride], the IC50 is 8.6 ± 2.9 µM in the assay with HCT116; more than 50 µM in the assay with MCF-10A; more than 50 µM in the assay on A2780; 4.55 ± 0.35 µM in the assay with HeLa; more than 50 µM with PATU; more than 50 µM in the assay on Bj-5ta. For the same compound, the IC50 in the assay on Hep G2, with A549 and in the assay on A2058 was more than 50 µM throughout.

Consider `O=C(COc1ccc(/C=C2\SC(=O)N(Cc3c4ccccc4nc4ccccc34)C2=O)cc1)Nc1cccc(C(F)(F)F)c1` [7f·2HCl, 2-(4-{[(5Z)-3-[(Acridin-9-yl)methyl]-2,4-dioxo-1,3-thiazolidin-5-ylidene]methyl}phenoxy)-N-[3-(trifluoromethyl)phenyl]acetamide dihydrochloride], for which the IC50 in the assay with HCT116 is 15.2 ± 3.4 µM; with MCF-10A, 7.7 ± 1.5 µM; in the assay with A2780 it was more than 50 µM; in the assay with HeLa, 6.9 ± 0.2 µM; in the assay with PATU it was 9.82 ± 1.92 µM; in the assay with Bj-5ta, 39.5 ± 6.5 µM. Moreover, the IC50 is 27.4 ± 5.9 µM in the assay with Hep G2, 34 ± 6.05 µM with A549 and more than 50 µM in the assay with A2058.

Turning to `O=C(COc1ccc(/C=C2\SC(=O)N(Cc3c4ccccc4nc4ccccc34)C2=O)cc1)Nc1cc(C(F)(F)F)cc(C(F)(F)F)c1` [7g·2HCl, 2-(4-{[(5Z)-3-[(Acridin-9-yl)methyl]-2,4-dioxo-1,3-thiazolidin-5-ylidene]methyl}phenoxy)-N-[3,5-bis(trifluoromethyl)phenyl]acetamide dihydrochloride], the IC50 is more than 50 µM with HCT116; 13.2 ± 3.2 µM with MCF-10A; more than 50 µM with A2780; 19.3 ± 4.6 µM in the assay on HeLa; more than 50 µM with PATU; more than 50 µM in the assay with Bj-5ta. For the same compound, the IC50 was more than 50 µM with Hep G2, 32.4 ± 7.6 µM in the assay on A549 and more than 50 µM in the assay with A2058.

`COc1cc(NC(=O)COc2ccc(/C=C3\SC(=O)N(Cc4cccc5cc6ccccc6nc45)C3=O)cc2)cc(OC)c1` [8b·HCl, 2-(4-{[(5Z)-3-[(Acridin-4-yl)methyl]-2,4-dioxo-1,3-thiazolidin-5-ylidene]methyl}phenoxy)-N-(3,5-dimethoxyphenyl)acetamide hydrochloride]: the IC50 in the assay with HCT116 was 32.4 ± 6.3 µM; in the assay with MCF-10A it was more than 50 µM; with A2780, more than 50 µM; in the assay with HeLa, 47.9 ± 1.4 µM; with PATU, more than 50 µM; in the assay on Bj-5ta, more than 50 µM. Further, the IC50 in the assay with Hep G2, in the assay with A549 and with A2058 was more than 50 µM in each case.
